Reference: US4870002A, “Method of prevention of oxidative injury to cells” (priority 1985, dated 1989)
Entries after “also recorded” stand apart in the source; their conditions may differ.

How the values were obtained:
pig RBCs = assay: Thermal fragility / hemolysis of RBCs (410 nm absorbance of supernatant); format: cell-based
Description: Blood was collected from Landrace-Duroc swine from a closed herd. Pigs from this herd had previously expressed episodes of porcine stress syndrome (malignant hyperthermia) following halothane anesthesia. The blood was collected into acidic citrated dextrose solution in standard blood bags. The blood was diluted 1:10 in phosphate (0.1M) buffered saline (PBS), pH 7.4, in 10 ml aliquots, centrifuged in a clinical centrifuge, and the erythrocytes were resuspended in fresh PBS. The cells were stored at 4° C. until used in the various assays. The post-collection chronological age of the RBCs used for a particular assay is noted in the results for each assay. The cells were counted in an automated cell counter (Coulter ZBI, Coulter Electronics, Inc., Hialeah, Fla. 33010).
Red blood cells were heated in 1 or 1.5 ml aliquots of PBS pH 7.4 with or without additional reagents in cellulose nitrate or polypropylene centrifuge tubes. Two concentrations of cells were used as indicated in the results. Heating was accomplished by three methods: microwave radiation, hot air, or water bath heating. The microwave device was a circularly polarized waveguide powered by a 1-kw S-band (microwave) amplifier (Model 10704,MCL, Inc., La Grange, Ill.). The heating of the sample at a specific absorption rate (SAR) of 91±4 W/kg (continuous wave (CW), 2450MHz) was offset by an air-cooling system that maintained a constant temperature. This system has been previously described in greater detail in Kiel, J. L. and D. N. Erwin, "Microwave and thermal interactions with oxidative hemolysis", 16 Physiol. Chem. Phys. Med. NMR, 317-323 (1984), which reference is hereby incorporated in its entirety by this specific reference thereto. […] The temperature was held within ±0.2° C. by this system. In the absence of microwave radiation, the temperature was held constant by hot air alone. The microwave/hot air system was brought to 37° C. for 15 min. prior to raising the temperature to 43° C. by microwaves or hot hot air. The water bath heating held the temperature within ±0.5° C. Heating times were 10, 15, or 30 min. The temperatures examined were 37°, 43°, 45°, or 48°.
Hemoglobin released into the supernatants of the heated cells were determined by the method described in the above-incorporated reference of Kiel and Erwin (1984). In brief, the supernatants were collected following centrifugation in a clinical centrifuge, diluted 1:2 in PBS, pH 7.4, and the optical absorbances at 410 nm were determined in a dual beam spectrophotometer. Pyruvate, lactate, inosine, hydrogen peroxide, mimosine, and/or 3-amino-L-tyrosine were added to the samples as indicated in Tables 1-3 and 9-12. All reagents were diluted in PBS and the final volumes of the samples were constant.

horseradish peroxidase = target: T1, horseradish peroxidase (Armoracia rusticana, UniProt P00433); assay: Inhibition of horseradish peroxidase; format: biochemical; conditions: read-out: K1
T1 sequence (P00433 31-338 limits assumed): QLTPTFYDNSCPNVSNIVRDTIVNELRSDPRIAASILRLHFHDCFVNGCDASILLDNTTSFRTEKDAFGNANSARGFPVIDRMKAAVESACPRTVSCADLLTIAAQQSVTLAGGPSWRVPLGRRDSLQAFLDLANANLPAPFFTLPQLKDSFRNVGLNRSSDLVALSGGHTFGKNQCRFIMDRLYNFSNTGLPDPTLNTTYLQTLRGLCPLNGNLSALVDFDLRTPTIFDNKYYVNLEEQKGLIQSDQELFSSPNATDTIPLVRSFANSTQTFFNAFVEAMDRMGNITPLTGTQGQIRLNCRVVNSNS

[1] = test system: T cell (spleen) peroxidase; assay: Inhibition of T cell (spleen) peroxidase activity; format: biochemical
Novikoff hepatoma [2] = assay: Enhancement of tumor growth by aminotyrosine after dilute hepatoma cell challenge; format: in vivo, rat; conditions: 1 mg i.p. daily for five days; ninth day following inoculation; four adult male rats; controls no tumor
Description: In order to evaluate whether or not endogenous peroxidases play a role in the natural resistance to neoplastic growth, we injected some rats with a potent inhibitor of the cytotoxic activity of peroxidases and subsequently challanged the animals with a suspension of hepatoma cells.
Four adult male rats were injected i.p. with 1 mg of 3-aminotyrosine in 1 ml of water. Four control rats were injected with 1 ml of water. The following day all rats were injected with 1 ml of a dilute Novikoff hepatoma cell suspension; the number of cells being normally insufficient to produce tumor growth. On the same day, an additional 1 mg aminotyrosine was administered to the rats that received the inhibitor the previous day and this was repeated for three more days. The four control rats similarly received water injections.
On the ninth day following the inoculation with tumor, all rats were sacrificed and examined for the presence of tumor. No tumor was present in any of the control animals.

Novikoff hepatoma [3] = assay: Effect of peroxidase inhibitor on ICCOPS-promoted hepatoma regression; format: in vivo, rat
Description: Four of the animals were also injected with 100 μg of 3-aminotyrosine.

## Nc1cc(C[C@H](N)C(=O)O)ccc1O [3-aminotyrosine, 3-amino-L-tyrosine]
Pig RBCs; 74 μM, 48° C. 30 min
  Percent difference from controls (corrected), 4° C.: -0.8%
  Percent difference from controls (corrected), 48° C.: -38.3%
Pig RBCs; 74 μM, 48° C. 30 min, RBCs 20 days post collection, 1.4×10^9 per ml
  410 nm absorbance, Actual: 0.491 ± 0.032
Pig RBCs; 74 μM, 48° C. 30 min, corrected for RBC dilution
  410 nm absorbance, Corrected: 0.368
Pig RBCs; 74 μM, 48° C. for 30 min
  effect on thermal hemolysis, in words: suppressed the thermal hemolysis to the level of the 4 °C control; also recorded: powerful inhibitor
Pig RBCs; 1.49 mM, 45° C.
  effect on thermal hemolysis, in words: did not significantly inhibit
Pig RBCs; 3-amino-L-tyrosine and H2O2 at 37° C., 4° C. control 0.243±0.004
  hemolysis, optical density of supernatants (1:2 dilution) at 410 nm: 0.261±0.007
Pig RBCs; preincubation with 3-amino-L-tyrosine alone (1.49 mM, 4° C., 72 hours)
  hemolytic value: 0.452±0.02
Pig RBCs; pyruvate and 3-amino-L-tyrosine, 37° C.
  spontaneous hemolysis reading: 0.326±0.03
Horseradish peroxidase
  Ki: 5 µM
[1]
  effect on T cell (spleen) peroxidase activity, in words: inhibit
Novikoff hepatoma [2]
  presence of tumor, in words: had developed tumor growth
Novikoff hepatoma [3]; 100 μg injected into ICCOPS-treated hepatoma-bearing rats
  effect on the action of ICCOPS, in words: inhibited the action of ICCOPS
Novikoff hepatoma [3]; four rats receiving ICCOPS and 100 μg 3-aminotyrosine
  outcome, in words: eventually died of the tumor
